Source: patent US20180050035A1, “ANTIFUNGAL TREATMENT OF ROSACEA” (Gerbe Labs Inc., priority 2016, published 2018)
Values after ≈ are worked out from the molar mass of the structure shown.

What was measured:
Assay type in all cases: cell-based
[1] = tested on: Aspergillus fumigatus + Candida albicans co-culture (1:1); test: Broth microdilution MIC assay against co-culture of fungal spores; conditions: Table 4, repeated MIC study, agent alone, listed as Itraconazone
Method: Broth Microdilution Minimal Inhibitory Concentration (MIC) assays were performed to obtain the MIC values for Itraconazole and Ketoconazole with an antibiotic (Vancomycin or Tobramycin or Amikacin) against the two fungal strains.
The strains were maintained as a frozen glycerol stocks at −80° C. The fungal strains were prepared by thawing a glycerol stock, streaking and growing onto Sabouraud's Dextrose Agar (SDA) plates, overnight at 35±2° C. in aerobic conditions and used for the assay.
The completely synthetic medium RPMI-1640 (with glutamine, without bicarbonate, and with phenol red as a pH indicator) was buffered with 0.165 mol/L MOPS (3-[N-morpholino] propanesulfonic acid) buffer was used as the growth medium for the fungal strains. Overnight cultures of the fungal strains were grown on Difco™ Sabouraud's Dextrose Agar (SDA) plates at 35° C. To induce conidium and sporangiospore formation, the culture plates were transferred to incubator and grown for 5-7 days 30° C. or until good sporulation was obtained. Approximately, 10 mL of 0.85% saline containing 0.01% of Tween 80 was used to poured on to the agar plate containing conidia or sporangiospores and hyphal fragments. The suspension containing conidia or sporangiospores and hyphal fragments was aspirated and transferred to a sterile tube. This mixture was filtered to separate the spores from the vegetative cells of the fungi. […]

Candida albicans = test: Culture of Patient 7, sensitivity of isolate; conditions: Patient 7 culture
Excerpt: (§1) The patient underwent the standard workup for CRS, sleep disorder, and nasal obstruction, plus our diagnostic skin test and sinus CT scan.

gram negative bacteria = test: Culture of Patient 7, sensitivity of isolate; conditions: Patient 7 culture
Excerpt: as §1

CCC(C)n1ncn(-c2ccc(N3CCN(c4ccc(OCC5COC(Cn6cncn6)(c6ccc(Cl)cc6Cl)O5)cc4)CC3)cc2)c1=O (stereo not drawn) [Itraconazole]
MIC [1]: 1 µg/mL (≈ 1.42 µM)

CC(=O)N1CCN(c2ccc(OCC3COC(Cn4ccnc4)(c4ccc(Cl)cc4Cl)O3)cc2)CC1 (stereo not drawn) [Ketoconazole]
Sensitivity of cultured isolate (Candida albicans): sensitive

NC[C@H]1O[C@H](O[C@H]2[C@H](O)[C@@H](O[C@H]3O[C@H](CO)[C@@H](O)[C@H](N)[C@H]3O)[C@H](N)C[C@@H]2N)[C@H](N)C[C@@H]1O [tobramycin]
Sensitivity of cultured isolate (gram negative bacteria): sensitive
